Legend:
[1] = biological target: T1, EP2-Subtyp des humanen PGE2-Rezeptors (Homo sapiens, UniProt P43116); assay: cAMP antagonism test (HTRF cAMP, in presence of PGE2); type: cell-based; details: cAMP Antagonismustest, PGE2 as agonist; read-out: Antagonismus [IC50
T1 construct: host or cells: cells in a culture plate
Excerpt: Die Bindung von PGE2 an den EP2-Subtyp des humanen PGE2-Rezeptors induziert die Aktivierung membranständiger Adenylatzyklasen und führt zur Bildung von cAMP. In Gegenwart des Phosphodiesteraseinhibitors IBMX wird das durch diese Stimulation akkumulierte und mittels Zell-Lyse freigesetzte cAMP in einem kompetitiven Nachweisverfahren eingesetzt. In diesem Test konkurriert das cAMP im Lysat mit cAMP-XL665 um die Bindung eines Eu-Kryptat markierten Anti-cAMP Antikörpers.
Dabei entsteht in Abwesenheit von zellulärem cAMP ein maximales Signal, welches auf der Kopplung dieses Antikörpers an das cAMP-XL665 Molekül beruht. Dadurch entsteht nach Anregung bei 337 nm ein auf FRET (fluorescence resonance energy transfer) basierendes, lang anhaltendes Emissionssignal bei 665 nm (und bei […]). Beide Signale werden in einem geeigneten Messgerät zeitlich versetzt, d.h. nach Abklingen der Hintergrundsfluoreszenz gemessen. Jegliche Erhöhung des durch Prostglandin-E2-Gabe bedingten niedrigen FRET-Signals (gemessen als Well-Ratio-Veränderung = Emission665nm/Emission620nm * 10000) zeigt die Wirkung von Antagonisten.
Die in einer Testplatte und 30 % DMSO vorgelegten Substanzlösungen (0.75 µl) werden in 16 µl einer KRSB+IBMX-Stimulationslösung gelöst (1 X Krebs-Ringer Bicarbonate Buffer; Sigma-Aldrich # K-4002; inklusive 750 µM 3-Isobutyl-1-methylxanthine Sigma-Aldrich # 1-7018), anschließend werden 15 µl davon in eine medienfreie Zellkulturplatte überführt, die kurz zuvor mit KRSB gewaschen worden war.
Nach einer 30-minütigen Vorinkubation bei Raumtemperatur (RT) werden 5 µl einer 4xPGE2 Lösung (11 nM) zugegeben und in Gegenwart des Agonisten für weitere 60 min bei RT inkubiert (Volumen: ~ 20 µl), bevor die Reaktion anschlieβend durch Zugabe von 5 µl Lysispuffer gestoppt und für weitere 20 min bei RT inkubiert wird (Volumen: ~ 25 µl). Das Zell-Lysat wird anschließend in eine Messplatte überführt und entsprechend den Herstellerangaben (cyclic AMP kit Cisbio International # 62AMPPEC) gemessen.

[2] = system: Kumulus-Eizell Komplexe; assay: cumulus expansion test in vitro; type: cell-based, Mäusen; details: competing with PGE2
Excerpt: In immaturen weiblichen Mäusen (Stamm : CD1 (ICR) von Charles River) wird in einem Alter von 14 - 18 Tagen die Follikulogenese durch eine einmalige Gabe (intraperitoneal) von 10 I.E. PMSG (Pregnant Mare Serum Gonadotropine; Sigma G-4877, Lot 68H0909) induziert. 47 - 50 Stunden nach der Injektion werden die Ovarien entnommen und die Kumulus-Eizell Komplexe entnommen. Der Kumulus Komplex ist in diesem Stadium noch nicht expandiert. Die Kumulus-Eizell Komplexe werden nun für 20 - 24 Stunden mit Prostaglandin E2 (PGE2) (0,3 µM), Vehikel Kontrolle (Ethanol) oder Testsubstanzen inkubiert. Medium: alpha- MEM Medium mit 0,1 mM IBMX, Pyruvate (0,23 mM) Glutamine (2 mM), Pen/Strep 100 IU/ml Pen. und 100 µg/ml Strep.) und HSA (8 mg/ml)). Danach wird die Kumulus Expansion durch die Einteilung in vier Stadien (nach Vanderhyden et al. Dev Biol. 1990 Aug; 140(2):307-317) festgestellt. Tabelle 1: Beispiel für die biologische Wirksamkeit der erfindungsgemäßen Verbindungen (gemessen mittels cAMP Antagonismustest): […]

[3] = biological target: T1, EP2-Subtyp des humanen PGE2-Rezeptors; assay: cellular cAMP agonism test; type: cell-based

T1 sequence (P43116 whole entry): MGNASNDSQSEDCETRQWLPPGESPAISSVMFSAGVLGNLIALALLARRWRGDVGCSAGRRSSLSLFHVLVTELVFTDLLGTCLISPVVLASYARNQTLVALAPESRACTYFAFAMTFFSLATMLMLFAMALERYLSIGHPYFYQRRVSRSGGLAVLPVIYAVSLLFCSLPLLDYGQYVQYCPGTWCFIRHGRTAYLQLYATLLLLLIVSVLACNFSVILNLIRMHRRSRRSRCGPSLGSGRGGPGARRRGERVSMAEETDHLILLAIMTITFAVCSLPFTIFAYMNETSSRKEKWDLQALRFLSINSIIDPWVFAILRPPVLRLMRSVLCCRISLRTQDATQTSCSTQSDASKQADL

| IC50 [1] [nM] | Compound | other results |
| --- | --- | --- |
| 1000 | Cc1[nH]c2c(F)ccc(C)c2c1CCNC(=O)/C=C/c1cccc(S(N)(=O)=O)c1 [Beispiel 36, (E)-N-[2-(7-Fluor-2,4-dimethyl-1H-indol-3-yl)-ethyl]-3-(3-sulfamoyl-phenyl)-acrylamid] | Wirkung im zellulären Agonismustest [3]: keine Inhibition |
| 1500 | Cc1[nH]c2c(F)ccc(C)c2c1CCNC(=O)/C=C/c1cncc2ccccc12 [Beispiel 47, (E)-N-[2-(7-Fluor-2,4-dimethyl-1H-indol-3-yl)-ethyl]-3-isochinolin-4-yl-acrylamid] | – |

The remaining lines, values behind:

| Compound | IC50 [1] [nM] | other results |
| --- | --- | --- |
| Cc1[nH]c2c(F)ccc(C)c2c1CCNC(=O)C=Cc1ccncc1 (mixture of isomers) [Beispiel 2, (E/Z)-N-[2-(7-Fluor-2,4-dimethyl-1H-indol-3-yl)-ethyl]-3-pyridin-4-yl-acrylamid] | 1500 | – |
| CC(C)Oc1ccc2c(=O)c3cc(C(=O)O)ccc3oc2c1 [AH 6809, reference compound] | – | Unterdrückung der Kumulus Expansion ([2]; 100 - 200 µM): ca. 30% |
| Cc1[nH]c2c(F)ccc(C)c2c1CCNC(=O)/C=C/c1ccc2c(c1)OCO2 [Beispiel 1, (E)-3-Benzo[1,3]dioxol-5-yl-N-[2-(7-fluor-2,4-dimethyl-1H-indol-3-yl)-ethyl]-acrylamid] | – | Unterdrückung der Kumulus Expansion ([2]; at a 10-fold lower concentration than AH 6809 (100 - 200 µM)): 61% |
| Cc1[nH]c2c(F)ccc(C)c2c1CCNC(=O)/C=C/c1ccc(OCCN(C)C)cc1 [Beispiel 18, (E)-3-[4-(2-Dimethylamino-ethoxy)-phenyl]-N-[2-(7-fluor-2,4-dimethyl-1H-indol-3-yl)-ethyl]-acrylamid] | 2200 | – |
